Reference: patent US5648355A, “Method of treatment of endogenous, painful gastrointestinal conditions of non-inflammatory, non-ulcerative origin” (priority 1994, dated 1997)
“Also recorded” adds a separate entry of the source. Counter-ions that a name gives are not always drawn. Like-named read-outs stand apart in the source and are kept apart here.

Legend:
rat mucosal mast cell = assay: inhibition of rat mucosal mast cell degranulation in vitro (histamine release); assay type: cell-based; settings: read-out: ID20 for histamine release
Description: It is not necessary to the operability of the present invention that each member of the foregoing classes inhibits mast cell degranulation to the same extent. The ability of a particular substance to inhibit mast cell degranulation can be readily determined empirically. Thus, mast cells from rats (pieces of small intestine) or humans (intestinal biopsies) can be obtained; otherwise, RBL cells or immortalized human mucosal-like mast cells (HMC-1) are kept in culture. Any of these cells then are exposed to various concentrations of a putative inhibitory compound, to allow for action by the putative inhibitor at critical sites. Efficacy with respect to inhibition of mast cell degranulation then is ascertained; that is, the intestinal biopsies, explants or cultured cells thus treated are used as such or washed free of unbound test compound before exposure to a stimulus known to induce mast cell degranulation. A compound suitable for use in accordance with the present invention is recognized as one that prevents the stimulus from causing degranulation, presumably by binding to specific receptors or by inactivating a crucial step in the degranulation process.
A pharmaceutically effective dose for a given mast cell degranulation-blocking agent can be approximated by its ID20, which is the dose necessary to cause 20% inhibition in mast cells when applied to mast cells stimulated in vitro.

mast cell = settings: effective dose causing 20% secretion; cited from earlier work
[1] = test system: rat mucosal mast cell (MMC); assay: RMCPII release from rat ileal explants, toxin A; assay type: cell-based; settings: for RMCPII released, Ketotifen + Toxin A: ketotifen 1 mg/kg twice daily intragastrically 4 days, toxin A 5 μg/ml, n = 6
Description: The following experiment was performed in order to evaluate rat mucosal mast cell (MMC) degranulation by measuring rat mast cell protease II (RMCPII), a specific marker for MMC, and by electron microscopy.
Rats were treated intragastrically for four (4) days with either 0.5 ml of saline containing ketotifen (1 mg/kg twice daily) or saline alone. On day five, the animals were euthanized, ileum was removed and ileal explants were placed in organ culture. The explants were incubated at 37° C. in a medium containing either 5 μg/ml of toxin A in 0.01 ml of 50 mM Tris buffer, or buffer alone. Aliquots (50 μl) of medium were collected at specified times and RMCPII levels were determined. Results are expressed in Table 4 as nanograms of RMCPII released per milligram of tissue wet weight (Pothoulakis et al., Gastroenterology 105:701-707, 1993).

[2] = test system: rat mast cell protease II (RMCPII); assay: rat-immobilization assay, stress model, intestinal RMCPII; assay type: in vivo; settings: for rat intestinal RMCPII, pre-treated w/ ketotifen: 1 mg/kg i.p. twice daily for four days before immobilization, n = 3
Description: An assay by which efficacy of a mast cell degranulation-blocking agent can be tested systemically in the present context is the rat-immobilization assay, […] After the immobilization, a specific gastrointestinal mast cell mediator, rat mast cell protease II (RMCPII), is measured. This assay is accepted as a non-ulcerogenic model of stress. See Williams et al., Am. J. PhysioI. 253:582-86 (1987).
Ketotifen was administered intraperitoneally to rats (1 mg/kg body weight, twice daily) for four days prior to immobilization.

irritable bowel syndrome = assay: patient treatment, irritable bowel syndrome; assay type: in vivo, human; settings: person; for pain: two months
abdominal migraine [3] = assay: patient treatment, abdominal migraine; assay type: in vivo, human; settings: person; 3 μg/day subcutaneous, four months
Description: A patient with a two-year history of abdominal migraine, experienced constant gastrointestinal pain which was considerably worse immediately premenstrually. After treatment with the Gn-RH analogue LUPRON (3 μg/day subcutaneous injection) for four months, they were symptom-free.

[4] = test system: gastrointestinal mast cells; settings: cited from earlier work
intracranial mast cells = settings: cited from earlier work
Type 1 phosphatase (PP1) = settings: cited from earlier work
PP2A = settings: cited from earlier work
PP2B = settings: cited from earlier work
PP2C = settings: cited from earlier work
[5] = test system: rat basophilic leukemia (RBL) cells; settings: Kouretas et al. 1991; cited from earlier work
abdominal migraine [6] = settings: in vivo; cited from earlier work
[7] = inhibitory dose causing 20% inhibition, rat mucosal mast cells in vitro

CN1CCC(=C2c3ccccc3CCc3cccnc32)CC1 [Azatadine]
IC20 (rat mucosal mast cell; [7]): 100 nM

CN(C)CCC(c1ccc(Cl)cc1)c1ccccn1 (centres unmarked) [Clorphenyramine]
ED20 for Histamine Release (mast cell): 10^-3 M

CN(C)CCOC(c1ccccc1)c1ccccc1 [Diphenhydramine]
ED20 for Histamine Release (mast cell): 10^-3 M

CN1CCC(=C2c3ccccc3CC(=O)c3sccc32)CC1 [Ketotifen]
IC20 (rat mucosal mast cell; Rattus norvegicus): 10000 nM
RMCPII released, Ketotifen + Toxin A ([1]; 30 min): 2.9 ± 1.0 nanograms of RMCPII released p
RMCPII released, Ketotifen + Toxin A ([1]; 60 min, p < 0.05 vs Toxin A): 3.0 ± 1.1 nanograms of RMCPII released p
RMCPII released, Ketotifen + Toxin A ([1]; 120 min, p < 0.01 vs Toxin A): 4.2 ± 0.9 nanograms of RMCPII released p
RMCPII released, Ketotifen + Toxin A ([1]; 180 min, p < 0.01 vs Toxin A): 6.7 ± 1.9 nanograms of RMCPII released p
release of RMCPII from rat ileal explants (in words) ([1]; toxin A stimulus): effectively inhibits the release of RMCPII
rat intestinal RMCPII, pre-treated w/ ketotifen ([2]; 60 min): 0.5 ng/mL
rat intestinal RMCPII, pre-treated w/ ketotifen ([2]; 120 min, p < 0.001 vs. immobilized): 0.8 ng/mL
secretion of RMCPII during stress (in words) ([2]; rat-immobilization assay): preventing secretion of RMCPII
pain (irritable bowel syndrome; 4 mg/day): their pain subsided significantly

CCNC(=O)[C@@H]1CCCN1C(=O)[C@H](CCCNC(=N)N)NC(=O)[C@H](CC(C)C)NC(=O)[C@@H](CC(C)C)NC(=O)[C@H](Cc1ccc(O)cc1)NC(=O)[C@H](CO)NC(=O)[C@H](Cc1c[nH]c2ccccc12)NC(=O)[C@H](Cc1c[nH]cn1)NC(=O)[C@@H]1CCC(=O)N1 [LUPRON, leuprolide acetate]
symptoms of abdominal migraine (abdominal migraine [3]): symptom-free

CNCCc1c[nH]cn1 [N^α -methyl histamine]
IC20 (rat mucosal mast cell; Rattus norvegicus): 100 nM

O=c1[nH]c2ccccc2n1CCCN1CCN(C(c2ccccc2)c2ccccc2)CC1 [Oxatomide]
IC20 (rat mucosal mast cell; [7]): 100 nM

CC(CN1c2ccccc2Sc2ccccc21)N(C)C (centres unmarked) [Promethazine]
ED20 for Histamine Release (mast cell): 10^-4 M

O=C(O)c1cc(=O)c2c(OCC(O)COc3cccc4oc(C(=O)O)cc(=O)c34)cccc2o1 [disodium cromoglycate]
inhibition of gastrointestinal / mucosal mast cells [4]: the former but not the latter are inhibited; also recorded: do not have an inhibitory effect specifically on mucosal mast cells
inhibition of intracranial mast cells (intracranial mast cells): inhibited

OCCOCCN1CCN(C(c2ccccc2)c2ccc(Cl)cc2)CC1 (centres unmarked) [hydroxyzine hydrochloride]
gastrointestinal discomfort (irritable bowel syndrome; 50 mg/day, three months): almost completely eliminated
professional and family responsibilities (irritable bowel syndrome; 50 mg/day, three months): able to resume their professional and family responsibilities
symptoms of irritable bowel syndrome on withdrawal (irritable bowel syndrome; attempted withdrawal): marked increase in symptoms of irritable bowel syndrome
symptoms on resuming the medication (irritable bowel syndrome; resumed medication): symptoms disappeared

OCCOCCN1CCN(C(c2ccccc2)c2ccc(Cl)cc2)CC1 (centres unmarked) [hydroxyzine pamoate]
professional activities (irritable bowel syndrome; 50 mg/day, 4 months): able to resume their professional activities
symptoms of irritable bowel syndrome (irritable bowel syndrome; 50 mg/day, 4 months): noticeable improvement of their symptoms

C=C1[C@@H](O)[C@@H]2O[C@]3(CC[C@H](/C=C/[C@@H](C)[C@@H]4CC(C)=C[C@@]5(O[C@H](C[C@@](C)(O)C(=O)O)CC[C@H]5O)O4)O3)CC[C@H]2O[C@@H]1[C@@H](O)C[C@H](C)[C@H]1O[C@@]2(CCCCO2)CC[C@H]1C [okadaic acid]
effect on PP1 (Type 1 phosphatase (PP1)): inactivated
effect on PP2A (PP2A): inhibited
effect on PP2B (PP2B): inhibited
effect on PP2C (PP2C): insensitive

CC(=O)[C@H]1CC[C@H]2[C@@H]3CCC4=CC(=O)CC[C@]4(C)[C@H]3CC[C@]12C [progesterone]
binding to RBL cells [5]: bind

CC(C)NCC(O)COc1cccc2ccccc12 (centres unmarked) [propranolol]
effect in abdominal migraine (abdominal migraine [6]): seem not to work

CC/C(=C(\c1ccccc1)c1ccc(OCCN(C)C)cc1)c1ccccc1 [tamoxifen citrate]
pain (irritable bowel syndrome; 40 mg/day orally): substantially eliminated their pain
